Consider ten compounds from ChEMBL document CHEMBL5291721, “A preclinical secondary pharmacology resource illuminates target-adverse drug reaction associations of marketed drugs” (Nat Commun, 2023).

Targets include Motilin receptor (Homo sapiens, UniProt O43193); Mu-type opioid receptor (Homo sapiens, UniProt P35372); D(3) dopamine receptor (Homo sapiens, UniProt P35462).
The target of a further assay is T1, Progesterone receptor (Homo sapiens, UniProt P06401).
T1 sequence (P06401 whole entry): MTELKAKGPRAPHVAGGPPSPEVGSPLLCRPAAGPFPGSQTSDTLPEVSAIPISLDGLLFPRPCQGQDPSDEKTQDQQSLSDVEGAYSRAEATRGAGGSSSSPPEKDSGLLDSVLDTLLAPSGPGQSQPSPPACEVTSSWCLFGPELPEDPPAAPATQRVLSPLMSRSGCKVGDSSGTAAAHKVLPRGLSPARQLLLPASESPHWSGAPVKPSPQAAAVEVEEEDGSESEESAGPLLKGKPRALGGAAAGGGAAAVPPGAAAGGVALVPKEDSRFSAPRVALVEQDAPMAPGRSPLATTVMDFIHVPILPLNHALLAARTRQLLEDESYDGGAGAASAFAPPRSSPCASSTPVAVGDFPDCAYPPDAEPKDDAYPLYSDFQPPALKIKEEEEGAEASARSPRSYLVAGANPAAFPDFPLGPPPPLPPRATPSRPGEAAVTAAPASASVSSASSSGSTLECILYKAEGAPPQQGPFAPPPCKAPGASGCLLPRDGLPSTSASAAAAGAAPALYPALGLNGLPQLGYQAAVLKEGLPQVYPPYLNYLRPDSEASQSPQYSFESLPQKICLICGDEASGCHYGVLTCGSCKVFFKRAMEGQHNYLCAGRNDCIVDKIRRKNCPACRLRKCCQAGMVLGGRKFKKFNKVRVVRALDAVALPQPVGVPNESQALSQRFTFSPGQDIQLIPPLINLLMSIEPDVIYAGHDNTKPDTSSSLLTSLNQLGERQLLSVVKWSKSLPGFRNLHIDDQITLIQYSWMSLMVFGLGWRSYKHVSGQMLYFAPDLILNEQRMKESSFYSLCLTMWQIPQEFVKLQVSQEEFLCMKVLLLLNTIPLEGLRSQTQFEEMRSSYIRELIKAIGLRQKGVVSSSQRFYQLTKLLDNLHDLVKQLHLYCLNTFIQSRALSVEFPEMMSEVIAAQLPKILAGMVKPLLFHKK
In kind it is functional.

Assay [1] addresses T2, 5-hydroxytryptamine receptor 1A (Homo sapiens, UniProt P08908).
T2 sequence (P08908 whole entry): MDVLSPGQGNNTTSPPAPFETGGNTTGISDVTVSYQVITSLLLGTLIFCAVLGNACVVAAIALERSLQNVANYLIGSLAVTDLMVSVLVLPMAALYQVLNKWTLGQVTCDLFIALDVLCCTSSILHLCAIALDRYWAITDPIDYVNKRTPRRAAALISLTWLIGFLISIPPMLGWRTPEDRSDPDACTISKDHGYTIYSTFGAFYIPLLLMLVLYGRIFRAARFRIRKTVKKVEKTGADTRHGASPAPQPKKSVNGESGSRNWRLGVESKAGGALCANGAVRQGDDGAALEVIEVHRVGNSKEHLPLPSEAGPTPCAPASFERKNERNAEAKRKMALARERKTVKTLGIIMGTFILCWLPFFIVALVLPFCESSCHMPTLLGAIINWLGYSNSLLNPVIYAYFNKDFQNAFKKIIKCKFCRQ
The assay is classed as functional, cell-based.

In assay [2] the target is T3, Muscarinic acetylcholine receptor M2 (Homo sapiens, UniProt P08172).
T3 sequence (P08172 whole entry): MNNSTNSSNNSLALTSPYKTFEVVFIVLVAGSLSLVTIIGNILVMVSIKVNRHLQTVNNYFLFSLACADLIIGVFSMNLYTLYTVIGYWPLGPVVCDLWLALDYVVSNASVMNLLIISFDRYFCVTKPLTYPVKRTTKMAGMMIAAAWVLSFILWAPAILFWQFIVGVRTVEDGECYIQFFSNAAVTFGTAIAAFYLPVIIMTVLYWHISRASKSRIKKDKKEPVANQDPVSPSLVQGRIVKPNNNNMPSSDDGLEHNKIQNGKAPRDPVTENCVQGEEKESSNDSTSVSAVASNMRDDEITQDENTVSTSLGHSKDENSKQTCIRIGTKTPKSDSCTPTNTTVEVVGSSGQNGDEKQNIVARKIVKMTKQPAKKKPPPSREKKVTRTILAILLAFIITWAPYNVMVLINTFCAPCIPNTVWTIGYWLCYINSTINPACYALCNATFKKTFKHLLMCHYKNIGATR
The assay is classed as functional, cell-based.

The target in assay [3] is 3',5'-cyclic-AMP phosphodiesterase 4D (Homo sapiens, UniProt Q08499). In kind it is functional.
Sequence of 3',5'-cyclic-AMP phosphodiesterase 4D (Q08499 whole entry): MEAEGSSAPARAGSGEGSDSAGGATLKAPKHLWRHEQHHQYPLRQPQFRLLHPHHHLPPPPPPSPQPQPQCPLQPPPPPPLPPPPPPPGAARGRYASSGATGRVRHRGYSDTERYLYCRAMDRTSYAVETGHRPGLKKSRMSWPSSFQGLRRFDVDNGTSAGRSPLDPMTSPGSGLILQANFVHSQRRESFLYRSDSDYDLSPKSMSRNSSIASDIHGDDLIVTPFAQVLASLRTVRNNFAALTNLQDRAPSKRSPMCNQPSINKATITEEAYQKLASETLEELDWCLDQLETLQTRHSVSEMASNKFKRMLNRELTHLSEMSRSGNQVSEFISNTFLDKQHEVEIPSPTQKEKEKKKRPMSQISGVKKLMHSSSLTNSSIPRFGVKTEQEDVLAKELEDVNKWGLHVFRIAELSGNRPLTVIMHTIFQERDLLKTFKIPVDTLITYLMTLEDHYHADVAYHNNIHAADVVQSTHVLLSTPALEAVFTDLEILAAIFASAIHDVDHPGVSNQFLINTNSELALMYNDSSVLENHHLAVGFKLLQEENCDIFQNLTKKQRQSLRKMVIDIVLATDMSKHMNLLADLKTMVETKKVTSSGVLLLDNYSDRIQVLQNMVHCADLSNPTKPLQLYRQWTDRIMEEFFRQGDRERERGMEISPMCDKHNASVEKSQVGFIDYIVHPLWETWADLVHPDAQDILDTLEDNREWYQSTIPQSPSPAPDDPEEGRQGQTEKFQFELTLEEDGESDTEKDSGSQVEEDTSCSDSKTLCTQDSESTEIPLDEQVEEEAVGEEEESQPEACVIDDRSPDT
The next assay deals with Histamine H2 receptor (Homo sapiens, UniProt P25021). The assay is classed as functional, cell-based.
Sequence of Histamine H2 receptor (P25021 whole entry): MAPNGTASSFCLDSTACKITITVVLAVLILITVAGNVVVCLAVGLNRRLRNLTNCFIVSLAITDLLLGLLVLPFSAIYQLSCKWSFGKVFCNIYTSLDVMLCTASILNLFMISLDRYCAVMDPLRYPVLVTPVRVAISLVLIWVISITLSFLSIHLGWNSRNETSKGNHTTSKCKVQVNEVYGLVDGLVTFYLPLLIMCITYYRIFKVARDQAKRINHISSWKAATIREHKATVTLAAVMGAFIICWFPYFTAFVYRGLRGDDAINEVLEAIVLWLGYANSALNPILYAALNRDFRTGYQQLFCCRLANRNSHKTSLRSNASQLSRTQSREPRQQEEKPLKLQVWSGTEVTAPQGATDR
Assay [4] deals with T4, Alpha-2A adrenergic receptor (Homo sapiens, UniProt P08913).
T4 sequence (P08913 whole entry): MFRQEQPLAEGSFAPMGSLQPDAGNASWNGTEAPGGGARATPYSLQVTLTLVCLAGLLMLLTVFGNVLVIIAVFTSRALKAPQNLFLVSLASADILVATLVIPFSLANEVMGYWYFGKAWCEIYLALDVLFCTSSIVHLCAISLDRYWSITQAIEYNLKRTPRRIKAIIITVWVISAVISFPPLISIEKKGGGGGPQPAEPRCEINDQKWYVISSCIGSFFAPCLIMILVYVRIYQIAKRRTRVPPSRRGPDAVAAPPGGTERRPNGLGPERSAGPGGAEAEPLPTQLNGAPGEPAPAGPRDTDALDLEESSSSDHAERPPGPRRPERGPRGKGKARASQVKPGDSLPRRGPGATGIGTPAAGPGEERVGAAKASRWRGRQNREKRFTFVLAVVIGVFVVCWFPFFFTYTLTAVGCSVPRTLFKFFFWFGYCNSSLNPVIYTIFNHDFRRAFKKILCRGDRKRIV

In another assay the target is Prothrombin (Homo sapiens, UniProt P00734). In kind it is functional.

SMILES strings stand for the structures.
Also: assay procedure not described here.

Sequence of Mu-type opioid receptor (P35372 whole entry): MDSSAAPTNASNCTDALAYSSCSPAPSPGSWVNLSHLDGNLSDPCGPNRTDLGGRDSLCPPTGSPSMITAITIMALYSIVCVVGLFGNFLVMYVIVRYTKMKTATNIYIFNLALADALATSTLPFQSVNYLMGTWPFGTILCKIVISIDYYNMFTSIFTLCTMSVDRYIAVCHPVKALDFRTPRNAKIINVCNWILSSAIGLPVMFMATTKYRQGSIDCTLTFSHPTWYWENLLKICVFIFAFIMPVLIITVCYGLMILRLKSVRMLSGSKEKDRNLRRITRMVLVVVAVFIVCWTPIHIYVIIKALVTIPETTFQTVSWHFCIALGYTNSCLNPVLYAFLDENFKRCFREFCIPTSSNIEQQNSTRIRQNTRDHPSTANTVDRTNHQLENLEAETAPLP
Sequence of D(3) dopamine receptor (P35462 whole entry): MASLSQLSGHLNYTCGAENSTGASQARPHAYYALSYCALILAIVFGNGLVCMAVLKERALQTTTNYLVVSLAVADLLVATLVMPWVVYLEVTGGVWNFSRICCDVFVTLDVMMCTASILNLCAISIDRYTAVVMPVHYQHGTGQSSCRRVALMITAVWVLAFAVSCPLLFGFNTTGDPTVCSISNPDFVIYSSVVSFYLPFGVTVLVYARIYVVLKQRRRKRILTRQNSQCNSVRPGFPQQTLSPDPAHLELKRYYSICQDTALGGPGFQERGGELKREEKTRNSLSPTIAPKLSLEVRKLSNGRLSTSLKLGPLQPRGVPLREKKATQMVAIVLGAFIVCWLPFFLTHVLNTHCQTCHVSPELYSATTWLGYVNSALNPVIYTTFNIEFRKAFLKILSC
Sequence of Motilin receptor (O43193 whole entry): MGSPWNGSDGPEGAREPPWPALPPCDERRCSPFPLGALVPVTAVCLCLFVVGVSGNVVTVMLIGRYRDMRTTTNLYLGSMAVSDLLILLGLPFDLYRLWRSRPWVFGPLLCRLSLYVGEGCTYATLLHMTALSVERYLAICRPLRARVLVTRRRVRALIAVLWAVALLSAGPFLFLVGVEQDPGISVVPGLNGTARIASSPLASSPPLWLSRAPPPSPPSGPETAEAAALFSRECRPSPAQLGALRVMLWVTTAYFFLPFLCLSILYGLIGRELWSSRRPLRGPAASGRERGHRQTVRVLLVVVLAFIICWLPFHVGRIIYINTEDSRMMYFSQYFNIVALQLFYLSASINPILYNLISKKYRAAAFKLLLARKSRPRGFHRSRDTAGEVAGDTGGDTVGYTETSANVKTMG

With `CC(=N)N1CC[C@H](SC2=C(C(=O)O)N3C(=O)[C@H]([C@@H](C)O)[C@H]3C2)C1`, the AC50 (at Progesterone receptor; in [1]; on Motilin receptor; at Mu-type opioid receptor; at D(3) dopamine receptor; in assay [2]) was > 300 µM each time. In addition, the AC50 in assay [3] was > 300 µM.

On to `CCc1oc2ccccc2c1C(=O)c1cc(Br)c(O)c(Br)c1` [BENZBROMARONE], for which the half-maximal activity concentration (AC50) is 3.8 µM at Progesterone receptor; > 30 µM in [1]; > 30 µM at Motilin receptor; 26 µM on Mu-type opioid receptor; > 30 µM on D(3) dopamine receptor; 14 µM in [2]. On Histamine H2 receptor, the concentration at half-maximal activity (AC50) is > 10 µM.

Turning to `[H]/N=C(\N/C(=N/[H])NCCCCCCNC(=N)NC(=N)Nc1ccc(Cl)cc1)Nc1ccc(Cl)cc1` [CHLORHEXIDINE], the AC50 at Progesterone receptor was 21.9 µM; in [1], 8.3 µM; at Motilin receptor it was 0.784 µM; at Mu-type opioid receptor it was 13 µM; on D(3) dopamine receptor, 3.2 µM; in [3], > 10 µM. Besides, on Histamine H2 receptor, the AC50 is > 10 µM.

In the case of `CC1(C)O[C@@H]2C[C@H]3[C@@H]4C[C@H](F)C5=CC(=O)C=C[C@]5(C)[C@H]4[C@@H](O)C[C@]3(C)[C@]2(C(=O)CO)O1` [FLUNISOLIDE], the AC50 is > 3 µM at Progesterone receptor; 0.56 µM in assay [1]; > 30 µM at Motilin receptor; > 30 µM on Mu-type opioid receptor; > 30 µM on D(3) dopamine receptor; > 30 µM in assay [2]. Further, the AC50 in assay [3] is > 30 µM.

As for `C[C@H]1Oc2cc(cnc2N)-c2c(nn(C)c2C#N)CN(C)C(=O)c2ccc(F)cc21` [LORLATINIB], the AC50 was > 30 µM at Progesterone receptor; 6.2 µM in assay [1]; > 30 µM at Motilin receptor; > 30 µM on Mu-type opioid receptor; > 30 µM at D(3) dopamine receptor; > 30 µM in [2]. In assay [3], this compound registered an AC50 of 16 µM.

Regarding `CCOc1cc(CC(=O)N[C@@H](CC(C)C)c2ccccc2N2CCCCC2)ccc1C(=O)O` [REPAGLINIDE], the AC50 (at Progesterone receptor; in assay [1]; at Motilin receptor; on Mu-type opioid receptor; at D(3) dopamine receptor; in assay [2]) was > 30 µM throughout. Further, the AC50 in assay [3] came to 9.6 µM.

Regarding `CCCN(CCC)CCc1cccc2c1CC(=O)N2` [ROPINIROLE], the AC50 at Progesterone receptor was > 30 µM; in assay [1] it was > 30 µM; on Motilin receptor it was > 30 µM; on Mu-type opioid receptor, 9.67 µM; in assay [2], > 30 µM; in [3], > 30 µM. Besides, the AC50 at Histamine H2 receptor is > 10 µM.

Consider `CCCN(CCc1cccs1)[C@H]1CCc2c(O)cccc2C1` [ROTIGOTINE], for which the AC50 on Progesterone receptor is > 30 µM; in assay [1], 0.67 µM; on Motilin receptor it was > 30 µM; on Mu-type opioid receptor, 8.6 µM; in assay [2], > 10 µM; in assay [3], > 30 µM.

`CC[C@H]1OC(=O)[C@H](C)[C@@H](O[C@H]2C[C@@](C)(OC)[C@@H](O)[C@H](C)O2)[C@H](C)[C@@H](O[C@@H]2O[C@H](C)C[C@H](N(C)C)[C@H]2O)[C@](C)(O)C[C@@H](C)/C(=N\OCOCCOC)[C@H](C)[C@@H](O)[C@]1(C)O` [ROXITHROMYCIN]: the AC50 on Progesterone receptor was > 30 µM; in [1], > 30 µM; on Motilin receptor it was 9 µM; at Mu-type opioid receptor, > 30 µM; at D(3) dopamine receptor, > 30 µM; in assay [2], > 30 µM. Further, the AC50 in assay [3] is > 30 µM.

For `CC1(C)O[C@@H]2[C@@H](CO[C@@]3(COS(N)(=O)=O)OC(C)(C)O[C@@H]23)O1` [TOPIRAMATE], the AC50 in [1] was > 10 µM; on Motilin receptor it was > 10 µM; in [4] it was > 30 µM; on Mu-type opioid receptor, > 10 µM; at D(3) dopamine receptor, > 10 µM; in assay [2] it was > 10 µM. The AC50 in [3] was > 30 µM; on Histamine H2 receptor, > 10 µM; at Prothrombin, > 30 µM.
